Experiments:
OATP1B3 = target: T1, OATP1B3 (Homo sapiens, UniProt Q9NPD5); experiment: [14C]fluciclovine uptake by OATP1B3-expressing cells; assay type: in vitro ADME; details: OATP1B3 cells vs mock cells
T1 construct: host or cells: HEK293
T1 sequence (Q9NPD5 1-702): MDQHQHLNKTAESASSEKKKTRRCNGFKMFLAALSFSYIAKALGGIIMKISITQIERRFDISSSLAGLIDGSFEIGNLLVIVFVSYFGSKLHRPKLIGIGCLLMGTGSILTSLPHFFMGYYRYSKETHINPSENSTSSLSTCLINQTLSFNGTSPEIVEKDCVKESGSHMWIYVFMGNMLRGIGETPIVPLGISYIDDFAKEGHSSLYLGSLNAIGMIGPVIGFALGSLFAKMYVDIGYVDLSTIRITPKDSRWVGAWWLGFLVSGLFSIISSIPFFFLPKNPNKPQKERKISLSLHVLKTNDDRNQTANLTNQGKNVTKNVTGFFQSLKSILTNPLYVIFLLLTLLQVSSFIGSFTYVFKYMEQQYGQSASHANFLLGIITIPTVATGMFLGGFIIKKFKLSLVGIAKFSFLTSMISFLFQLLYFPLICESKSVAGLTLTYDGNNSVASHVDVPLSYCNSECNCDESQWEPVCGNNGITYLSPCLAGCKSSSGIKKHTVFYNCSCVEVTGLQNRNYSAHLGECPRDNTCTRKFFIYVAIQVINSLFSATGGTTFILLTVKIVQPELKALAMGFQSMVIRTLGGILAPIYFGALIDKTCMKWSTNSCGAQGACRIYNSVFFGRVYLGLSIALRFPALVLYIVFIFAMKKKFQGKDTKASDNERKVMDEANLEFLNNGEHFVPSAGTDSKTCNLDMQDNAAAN
Procedure: (§1) For the SLC transporter experiments, Mock Flp-in-293 cells (Flp/mock), OAT1-expressing Flp-in-293 cells (Flp/OAT1), mock HEK293 cells (HEK/mock), and OATP1B3-expressing HEK293 cells (HEK/OATP1B3) were obtained from Kanazawa University (Ishikawa, Japan). Briefly, Flp-in-293 and HEK293 cells were transfected with the appropriate plasmid DNA and selected using antibiotics (hygromycin or G-418). All cell lines were cultured in DMEM (Life Technologies Japan) supplemented with 10% (v/v) fetal bovine serum (American Type Culture Collection) and antibiotics (100 U/mL penicillin and 100 μg/mL streptomycin (Life Technologies Japan) for mock cells, 0.2 mg/mL hygromycin for Flp/OAT1 cells, and 1.2 mg/mL G-418 (Roche Diagnostics K.K., Tokyo, Japan) for HEK/OATP1B3 cells) at 37 °C under an atmosphere containing 5% CO2. […]
(§2) The experiments were performed as described previously, with minor modifications. […] The cells were lysed in 0.3 mL of 0.1N NaOH at room temperature, after which the radioactivity of each aliquot was measured as described above. The protein concentration of the cell lysate was determined with a VersaMax microplate reader (Molecular Devices Japan K.K., Osaka, Japan) or SpectraMax i3x (Molecular Devices Japan K.K.; only for OATP1B1) using a BCA Protein Assay Kit (Thermo Fisher Scientific, Kanagawa, Japan). Tracer uptake was expressed as pmol/mg protein. […]

OATP1B1 = target: T2, OATP1B1 (Homo sapiens, UniProt Q9Y6L6); experiment: [14C]fluciclovine uptake by OATP1B1-expressing cells; assay type: in vitro ADME; details: OATP1B1 cells vs mock cells
T2 construct: host or cells: HEK293
T2 sequence (Q9Y6L6 1-691): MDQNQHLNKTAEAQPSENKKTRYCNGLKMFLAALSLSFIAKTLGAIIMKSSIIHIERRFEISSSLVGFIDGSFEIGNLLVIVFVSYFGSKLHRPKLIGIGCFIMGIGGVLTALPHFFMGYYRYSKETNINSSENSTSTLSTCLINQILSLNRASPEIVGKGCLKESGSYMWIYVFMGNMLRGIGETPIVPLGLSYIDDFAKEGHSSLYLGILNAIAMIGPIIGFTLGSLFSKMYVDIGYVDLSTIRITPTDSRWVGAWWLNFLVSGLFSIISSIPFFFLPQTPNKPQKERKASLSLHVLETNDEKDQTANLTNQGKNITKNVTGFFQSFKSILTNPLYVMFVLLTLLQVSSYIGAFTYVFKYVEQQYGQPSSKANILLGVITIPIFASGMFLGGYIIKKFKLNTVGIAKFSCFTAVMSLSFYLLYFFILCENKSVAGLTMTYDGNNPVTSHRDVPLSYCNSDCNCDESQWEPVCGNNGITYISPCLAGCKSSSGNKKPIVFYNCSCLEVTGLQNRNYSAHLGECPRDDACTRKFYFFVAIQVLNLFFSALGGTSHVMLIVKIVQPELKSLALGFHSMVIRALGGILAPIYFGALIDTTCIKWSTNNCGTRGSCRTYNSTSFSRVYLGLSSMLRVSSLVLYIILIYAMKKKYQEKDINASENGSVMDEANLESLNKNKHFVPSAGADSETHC
Procedure: as §1, §2

For N[14C]1(C(=O)O)CC(F)C1 (stereo not drawn) [[^14C]fluciclovine, trans-1-amino-3-fluoro[1-^14C]cyclobutanecarboxylic acid], the drug transporter-mediated uptake (OATP1B3) was “negligible” and the drug transporter-mediated uptake (OATP1B1) was “negligible”.
